Tested on: anti-OVA-specific IgG1 subclass antibody
Assay: Adjuvant activity: anti-OVA-specific IgG1 subclass antibody in serum after secondary immunization (Examples 1, 5, 7, 8; ELISA absorbance)
Type: in vivo, BALB/c mice
Procedure: Two weeks from the secondary immunization, the whole blood was extracted under anesthesia, and the obtained serum sample was measured for anti-OVA-specific IgG1 subclass antibody.
A method for measurement of the anti-OVA-specific IgG1 subclass antibody in Example 1, and the following Examples 5, 7 and 8 is as follows.
Measurement Method of anti-OVA-specific IgG1 Subclass Antibody
To a 96 well plate was added 5 μg/ml OVA at 100 μl/well, and the mixture was incubated at 4° C. overnight. After incubation, the mixture was washed three times with 200 μl of PBS-T (PBS+0.05%(v/v) Tween 20) per well, and blocked with 100 μl of 5% FCS/PBS solution per well at room temperature for 1 to 2 hr. Thereafter, the mixture was washed three times with PBS-T (200 μl/well), a diluted serum sample (100 μl/well) or the same amount of 5% FCS/PBS solution as a control was added, and the mixture was incubated at 37° C. for 1 hr. Thereafter, the mixture was washed five times with PBS-T (200 μl/well), a diluted biotinylated anti-mouse IgG1 antibody (100 μl/well) was added, and the mixture was incubated at 37° C. for 45 min. Thereafter, the mixture was washed five times with PBS-T (200 μl/well), a diluted anti-biotin-HRP antibody was added (100 μl/well), and the mixture was incubated at 37° C. for another 30 min. Thereafter, the mixture was washed five times with PBS-T (200 μl/well), TMB substrate solution was added (100 μl/well), and the mixture was incubated at room temperature for 10 to 15 min. Thereafter, a reaction quenching liquid (2N sulfuric acid solution) was added (50 μl/well) to discontinue a color developing reaction, and the absorbance (OD Value=450 nm) was measured by a microplate reader.

[1] = Example 8, same manner as Example 7
[2] = Example 7, same manner as Example 1, plus Addavax group

| Compound | adjuvant activity (IgG1) compared with Alum (Example 8) | anti-OVA-specific IgG1 subclass antibody production compared with Alum (Example 8) | anti-OVA-specific IgG1 subclass antibody production as compared to the OVA single administration group [1] | adjuvant activity (IgG1) compared with Alum (Example 7) | anti-OVA-specific IgG1 subclass antibody production as compared to the OVA single administration group [2] |
| --- | --- | --- | --- | --- | --- |
| CCCCCCCCCCCCCCCC(=O)N[C@@H](CC(C)C)C(=O)OC [SZ79, N-hexadecanoyl-L-leucine methyl ester] | equivalent to or not less than that of Alum | equivalent to that of Alum | a significant difference was not found |  |  |
| CCCCCCCCCCCCCCCC(=O)NCC(=O)OC [SZ78, N-hexadecanoyl glycine methyl ester] | equivalent to or not less than that of Alum | equivalent to that of Alum | a significant difference was not found |  |  |
| CCCCCCCCCCCCCCCCCCCCCC(=O)N[C@@H](CCCCN)C(=O)OC.O=C(O)C(F)(F)F [SZ73, N^2-docosanoyl-L-lysine methyl ester trifluoroacetic acid salt] |  |  |  | equivalent to or not less than that of Alum | significantly increased |
| CCCCCCCCCCCCCCCCCCCCCC(=O)N[C@H](C(=O)OC)[C@@H](C)CC [SZ76, N-docosanoyl-L-isoleucine methyl ester] |  |  |  | equivalent to or not less than that of Alum | significantly increased |
| CCCCCCCCCCCCCCCC(=O)N[C@@H](CCCCN)C(=O)OC.O=C(O)C(F)(F)F [SZ81, N^2-hexadecanoyl-L-lysine methyl ester trifluoroacetic acid salt] | equivalent to or not less than that of Alum | equivalent to that of Alum | a significant difference was not found |  |  |
| CCCCCCCCCCCCCCCC(=O)N[C@@H](CCC(=O)O)C(=O)OC [SZ82, N-hexadecanoyl-L-glutamic acid 1-methyl ester] | equivalent to or not less than that of Alum |  | significantly increased |  |  |
| CCCCCCCCCCCCCCCCCCCCCC(=O)N[C@@H](CCC(=O)O)C(=O)OC [SZ72, N-docosanoyl-L-glutamic acid 1-methyl ester] |  |  |  | equivalent to or not less than that of Alum | significantly increased |
| CCCCCCCCCCCCCCCCCCCCCC(=O)NCC(=O)OC [SZ69, N-docosanoyl glycine methyl ester] |  |  |  | equivalent to or not less than that of Alum | significantly increased |
| CCCCCCCCCCCCCCCCCCCCCC(=O)N[C@H](C(=O)OC)C(C)C [SZ77, N-docosanoyl-L-valine methyl ester] |  |  |  | equivalent to or not less than that of Alum | significantly increased |
| CCCCCCCCCCCCCCCC(=O)N[C@@H](Cc1ccccc1)C(=O)OC [SZ80, N-hexadecanoyl-L-phenylalanine methyl ester] | equivalent to or not less than that of Alum |  | significantly increased |  |  |

Reference: patent US20180243421A1, “IMMUNOSTIMULATING AGENT” (AJINOMOTO CO., INC., priority 2015, published 2018)
